# Experimental data taken from article PMC11008770 (Nature structural & molecular biology, 2023).
# Read-outs that look alike come from different tables or passages of the source.
# Columns and labels:
# AE1 [1] = molecular target: T1, AE1 (Homo sapiens, UniProt P02730); assay: Cellular bicarbonate uptake assay; type: cell-based
# T1 sequence (P02730 1-911): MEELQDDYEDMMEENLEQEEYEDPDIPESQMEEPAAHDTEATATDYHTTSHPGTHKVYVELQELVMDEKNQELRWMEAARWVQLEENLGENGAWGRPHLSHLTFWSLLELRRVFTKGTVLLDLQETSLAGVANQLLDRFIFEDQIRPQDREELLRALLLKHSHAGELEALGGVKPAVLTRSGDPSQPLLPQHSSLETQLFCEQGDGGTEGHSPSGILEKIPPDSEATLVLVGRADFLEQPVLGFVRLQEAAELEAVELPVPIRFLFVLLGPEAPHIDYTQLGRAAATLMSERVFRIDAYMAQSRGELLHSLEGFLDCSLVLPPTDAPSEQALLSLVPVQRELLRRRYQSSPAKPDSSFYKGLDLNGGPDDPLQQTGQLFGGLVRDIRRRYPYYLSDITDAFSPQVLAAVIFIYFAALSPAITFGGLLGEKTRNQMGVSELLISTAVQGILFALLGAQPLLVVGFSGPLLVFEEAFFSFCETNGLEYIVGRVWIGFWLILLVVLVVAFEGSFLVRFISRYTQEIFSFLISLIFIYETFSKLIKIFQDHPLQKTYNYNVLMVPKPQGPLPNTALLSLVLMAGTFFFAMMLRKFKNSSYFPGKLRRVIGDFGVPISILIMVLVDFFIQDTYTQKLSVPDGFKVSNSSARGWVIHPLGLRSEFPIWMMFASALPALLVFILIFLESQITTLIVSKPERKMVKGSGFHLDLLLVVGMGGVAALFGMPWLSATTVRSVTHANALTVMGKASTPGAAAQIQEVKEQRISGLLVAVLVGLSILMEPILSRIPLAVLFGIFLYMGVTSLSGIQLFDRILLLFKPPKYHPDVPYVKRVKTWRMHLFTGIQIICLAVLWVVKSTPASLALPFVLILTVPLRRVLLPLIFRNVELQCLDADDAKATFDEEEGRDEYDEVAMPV
# AE1 [2] = settings: read-out: Kd of bicarbonate; NMR studies; cited from earlier work
# AE1 [3] = settings: read-out: Kd of bicarbonate; flux studies in erythrocytes; cited from earlier work
Compound,IC50 (AE1 [1]) [µM],"AE1 inhibition in cellular bicarbonate uptake, single dose (AE1 [1]; 50 μM throughout the experiment, n = 3)",Kd (AE1 [2]) [µM],Kd (AE1 [3]) [µM]
"O=C(O)c1cccnc1Nc1cccc(C(F)(F)F)c1 [NIF, Niflumic acid]",15,statistically significant AE1 inhibition,–,–
O=C(O)O [bicarbonate],–,–,5400,2000
